Measurements as given in PubChem BioAssay (NCI).
Values joined by “and” are separate entries in the source; they are usually repeats but may differ in a detail not shown here. Equal entries are not always repeated.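 Cultured in 96-well plates, cells were exposed to test compound for 48 hours across five concentrations. Here, GI50 denotes the concentration required for 50% inhibition of growth. TGI is the concentration that stops growth completely.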

These compounds were tested on MDA-MB-468 breast (assay: NCI anticancer screen, dose series, 48 h).

SMILES	GI50	TGI
COc1cc(-c2nn(-c3cccc(NC(=O)CCNc4ccc(N5CCOCC5)cc4)c3)cc2-c2ccncc2)ccc1Cl	2.01 µM	22.9 µM
CN(C)c1ccc(-c2ccc(-c3ccc(C(=N)N)cn3)o2)cc1	1.39 µM	3.05 µM
CCOC(=O)/C(=C\c1ccc2ccccc2c1)P(=O)(OCC)OCC	1.9 µM	3.83 µM
C#C[C@]1(O)CC[C@H]2[C@@H]3CC=C4c5nc(N)sc5CC[C@]4(C)[C@H]3CC[C@@]21C	2.52 µM	7.03 µM
Cc1cc(NN=C(c2ccc(O)cc2)c2ccc(O)cc2)c([N+](=O)[O-])cc1[N+](=O)[O-]	4.91 µM	36.7 µM
COc1cccc(-c2nc3sccn3c2-c2ccnc(NCCCNS(=O)(=O)c3ccccc3)c2)c1	2.47 µM	7.83 µM
CC(C)OP(=O)(O)c1ncc(-c2ccc(C(F)(F)F)cc2)c(NC2CCCCCC2)n1	11.2 µM	> 100 µM
COc1ccc(C(O)c2cc3c(N)c(C(=O)Nc4cccc(Br)c4C)sc3nc2C)cc1 (configuration not stated)	0.125 µM	19.1 µM
O=C1Nc2ccc3c(c2/C1=C\c1cc2c(cc1Br)OCO2)OCO3	0.295 µM	0.978 µM
COc1ccc(-c2cc(/C=C/C(=O)c3ccc(N)cc3)[nH]n2)cc1	0.43 µM	2.09 µM
Cc1ccc(C2CC(c3ccc(Nc4ccnc5cc(Cl)ccc45)cc3)=NN2C=O)cc1 (configuration not stated)	1.51 µM	> 100 µM
CCOC(=O)[C@@H]1CSC(CC)=C(C(=O)O)N1	> 100 µM	> 100 µM
CCc1ccc2c(c1)N(CCO)C1=C(C(=O)OC1)C2c1cc(OC)c(OC)c(OC)c1 (configuration not stated)	0.0897 µM	0.347 µM
COc1cc(NC2CCCCC2O)c2nc(-c3ccc(Cl)cc3)ccc2c1 (configuration not stated)	7.48 µM	98.4 µM
COc1ccc(C2=Nn3c(nnc3-n3nc(C)cc3C)SC2)cc1	0.14 µM	> 100 µM
CN1CC[C@H](c2c(O)cc(O)c3c(=O)cc(-c4ccccc4Cl)oc23)[C@H](O)C1	0.0718 µM	0.269 µM
C[C@@H]1CCc2ncc(F)cc2[C@H]2CCCN2c2ccn3ncc(c3n2)C(=O)N1	76.4 µM	> 100 µM
CCOC(=O)c1c(NC(=O)c2ccc(Cl)cc2)sc2c(CN(C)C)c(O)ccc12	3.48 µM	18.6 µM
CCO/C=N/C1=C(C#N)C(c2ccc(OC)cc2)c2sc3c(CC)cccc3c2O1 (configuration not stated)	2.5 µM	10.3 µM
CC(O)[C@H](NC(=O)N[C@@H](CC(N)=O)c1nc(N2CCNCC2)no1)C(=O)O (some centres not stated)	> 100 µM	> 100 µM
CCn1c(-c2nonc2N)nc2cnc(Oc3cccc(NC(=O)c4ccc(N(C)C)cc4)c3)cc21	10.7 µM	> 25 µM

SMILES	GI50	TGI
O=CN1N=C(c2cccc(Nc3ccnc4cc(Cl)ccc34)c2)CC1c1ccc(Cl)cc1 (configuration not stated)	0.422 µM	3.17 µM
CS(=O)(=O)Nc1cc(-c2ccc3ncnc(Nc4cccc(Cl)c4)c3c2)cnc1Cl	0.145 µM	0.59 µM
CCCCCCCCCCCCCCCC[n+]1ccccc1	0.104 µM and 0.194 µM	0.428 µM and 0.793 µM
COc1ccc2c(c1)C(=O)c1c-2c(OCCN(C)C)nc2cc(OC)c(OC)cc12	3.95 µM	19 µM
O=c1[nH]cnc2n[nH]nc12	1.31 µM	12.7 µM
O=[N+]([O-])/C=C/c1ccc(Cl)cc1[N+](=O)[O-]	1.92 µM	3.69 µM
COc1ccc(/C=C/C(=O)c2cc3c(N)c(C(=O)Nc4ccc(OC)cc4)sc3nc2C)cc1	0.135 µM	> 50 µM
CC(=O)Oc1cc2cnc3c4cc(OC(C)=O)c(OC(C)=O)cc4ccc3c2cc1OC(C)=O	1.2 µM	4.44 µM
CC1(C)N=C(N)N=C(N)N1c1cccc(CCc2ccccc2)c1	0.0745 µM	2.51 µM
CCOC(=O)c1c(CN2CCN(C)CC2)nc2ccc(Cl)cc2c1-c1ccccc1	1.8 µM	4.43 µM
CC[C@H]1OC(=O)[C@H](C)[C@@H](O[C@H]2C[C@@](C)(OC)[C@@H](O)[C@H](C)O2)[C@H](C)[C@@H](O[C@@H]2O[C@H](C)C[C@H](N(C)C)[C@H]2O)[C@](C)(OC)C/C(C)=C2/O[C@@]1(C)C=C2C	1.82 µM	3.5 µM
CCOc1ccc2cc(-c3nn(CC4CCNCC4)c4ncnc(N)c34)ccc2c1	14.3 µM	30.2 µM
COc1cc2cc(Oc3cccc(NC(=O)Nc4cc(C(F)(F)F)cc(C(F)(F)F)c4)c3)c(C)nc2cc1OC	1.08 µM	3.96 µM
COc1cc2ncnc(Oc3cccc(NC(=O)Nc4cc(C(C)(C)C(F)(F)F)on4)c3)c2cc1OC	1.04 µM and 1.26 µM	6.01 µM and 6.4 µM
COc1ccc2c(c1OC)O/C(=C\c1ncc([N+](=O)[O-])n1C)C2=O	2.51 µM	8.23 µM
NC(=O)/C(=C/n1cnc(-c2cc(C(F)(F)F)cc(C(F)(F)F)c2)n1)c1cncnc1	0.373 µM	3.01 µM
C=CC(=O)Nc1cc2c(Nc3ccc(F)c(Cl)c3)ncnc2cc1C#CC(C)(C)N1CCN(C)CC1	0.00795 µM	0.401 µM
COc1cc2c3cc1Oc1c(OC)c(OC)cc4c1C(Cc1ccc(O)c(c1)Oc1ccc(cc1)CC3N(C)CC2)N(C)CC4 (configuration not stated)	8.21 µM	23.1 µM
COc1cc(/C=C2\SC(N3CCCCC3)=NC2=O)ccc1OCCCCCCOc1ccc(/C=C2\SC(N3CCCCC3)=NC2=O)cc1OC	10.3 µM	37.2 µM
COc1cc(-c2nn(-c3cccc(NC(=O)CCN4CCN(c5ccccc5)CC4)c3)cc2-c2ccncc2)ccc1Cl	3.03 µM	51.4 µM
